Tests used:
ASD patients = settings: clinical setting; heterogeneous responses reported; cited from earlier work
[1] = test system: human cell lines (A549, ASC, HA1E, HT29, MCF7, PC3, VCAP); experiment: Differential gene expression (QuantSeq RNA sequencing) after bumetanide treatment of cell lines; assay type: cell-based; settings: 10 uM, 6 or 24 hours, across cell lines
Protocol: To characterize the cell line invariant mechanism of action, bumetanide was tested across different human cell lines including several cancer cell lines (such as A549, MCF7, PC3, HT29 and VAP) as well as cells from healthy tissues (such as ASC and HA1E). These cell lines (Table 3) were chosen due to their ease of manipulation and suitability for systematic screening. […] Incubation of cell types was performed inside an incubator with a humified atmosphere of 95% and 5% of CO2, and a constant temperature of 37° C. Cells were treated with bumetanide using a dilution of 10 uM for all replicates at a time duration of 6 or 24 hours. [table] Following drug treatment, RNA extracted from each treated cell line was sequenced with QuantSeq with 4-6 million coverage reads per sample in triplicates.

[2] = test system: patients with idiopathic ASD; experiment: Observational clinical pilot study: earlier oral bumetanide treatment of ASD patients; assay type: in vivo, human; settings: three patients with idiopathic ASD; oral solution 0.5, 1.0 or 2 mg twice daily for three months
Protocol: The main goal of this pilot study was to validate the clinical benefit of bumetanide in patients showing clinical signs and symptoms characterizing ASD phenotype 3. First, a custom semi-structured online clinical questionnaire (Questionnaire […] 2021) comprising a total of 38 medical examination questions and 73 medical history questions was administered by a clinician during a remote screening visit (over the phone) that took up to 90 min. This remote screening visit included reviewing detailed medical history and clinical signs and symptoms related to ASD phenotype 3 with the patient/caregiver for a clinical validation. […]

| SMILES | Effect on behaviour in ASD patients (ASD patients) | DEG ranking after treatment, GNAS ([1]; gene GNAS) | Direction of differential expression, GNAS ([1]; gene GNAS) | DEG ranking after treatment, KCNJ6 ([1]; gene KCNJ6) | DEG ranking after treatment, KCNJ10 ([1]; gene KCNJ10) | DEG ranking after treatment, KCNK3 ([1]; gene KCNK3) | DEG ranking after treatment, KCNQ3 ([1]; gene KCNQ3) | DEG ranking after treatment, KCNV1 ([1]; gene KCNV1) | DEG ranking after treatment, SLC12A5 (KCC2) ([1]; gene SLC12A5 (KCC2)) | DEG ranking after treatment, SNAP25 ([1]; gene SNAP25) | Clinical response of ASD patients to treatment [2] |
| --- | --- | --- | --- | --- | --- | --- | --- | --- | --- | --- | --- |
| C[S+]([O-])CCCCN=C=S (centres unmarked) [sulforaphane] | improve behaviour in some ASD patients |  |  |  |  |  |  |  |  |  |  |
| CCCCNc1cc(C(=O)O)cc(S(N)(=O)=O)c1Oc1ccccc1 [bumetanide, 3-(butylamino)-4-phenoxy-5-sulfamoylbenzoic acid] |  | 1 | DOWN | 19 | 113 | 49 | 48 | 165 | 35 | 1 | shown improvement |

From patent publication US20230134747A1, “COMPOSITIONS FOR THE TREATMENT OF AUTISM SPECTRUM DISORDER” (STALICLA SA, priority 2020, published 2023)
